Columns and labels:
terminal ileum = experiment: Spasmolytic effect on terminal ileum (KCl contraction); conditions: guinea pig terminal ilea, KCl-induced contraction
Procedure: Guinea pigs of either sex weighing between 250 or 380 g were utilized in this study. The animals were housed in a controlled environment in an air-conditioned room, maintaining a temperature of 22 to 24 °C and a relative humidity of 50% to 60%. A 12 h light–dark cycle was maintained.
On the day of the experiments, the animals were euthanized via cervical dislocation. The heart, aorta, pulmonary artery, and ileum were surgically removed and immersed in Krebs–Henseleit solution, with the following composition: NaCl 144.9 mM, KCl 4.73 mM, CaCl2 3.2 mM, MgSO4 1.18 mM, NaHCO3 24.9 mM, KH2PO4 1.18 mM, and glucose 10 mM, with the pH maintained at 7.2–7.4. This solution was continuously aerated with a mixture of 95% O2 and 5% CO2.
Papillary muscles were isolated from the right ventricle of the heart and meticulously cleared of Purkinje fibers to prevent spontaneous activity. To ensure adequate oxygen supply, only muscles with a diameter less than 0.87 mm were used. The right atrium was also dissected for assessment of chronotropic activity. Both the aorta and pulmonary artery were cleaned and cut into 5 mm rings, while the ileum was sectioned into pieces measuring 1 to 2 cm.
One end of the dissected tissues was securely tied with silver wire for attachment to a tissue holder, while the other end was connected to a force transducer (Transbridge™, 4-Channel Transducer Amplifier, World Precision Instruments, Sarasota, FL, USA). For contractile measurements, the terminal ileum was stimulated with 60 mM KCl, and the pulmonary artery and aorta rings were exposed to a 90 mM KCl solution. Papillary muscles were electrically stimulated using an Anapulse Stimulator Model 301-T and an Isolation Unit Model 305-1 (WPI, Hamden, CT, USA) with rectangular pulses of 3 ms duration at a frequency of 1 Hz. The amplitude of the stimulation pulse was maintained at 10% above the threshold level. To optimize contractility, a constant resting tension was applied throughout the experiment: 3.9 mN for papillary muscle, 4.9 mN for terminal ileum, 10.4 mN for the right atrium, and 19.6 mN for aorta and pulmonary artery rings.
Following a 30 min control period, different concentrations of test compounds were cumulatively added to the bath solution every 45 min until a stable effect was achieved. The responses were recorded using a chart recorder (BD 112 Dual Channel, Kipp &Zonen, PO Box 507, 2624 BC, Delft, Holland) for subsequent evaluation. Stock concentrations of the test compounds were prepared using DMSO. To account for any potential DMSO effect, control experiments were conducted with the solvent alone, and the observed effects were subtracted from the responses elicited by the test compounds.

[1] = Cytotoxicity against RAW 264.7 macrophages (MTT); type: cell-based, murine; conditions: mouse, RAW 264.7 macrophages, pH 7.2, RAW 264.7 cells
Procedure: Murine macrophage cell line RAW 264.7 was used in this study. The cells were cultured in 75 cm^2 cell culture flasks (Corning Glass Workers, New York, NY, USA) using DMEM medium with a pH of 7.2, supplemented with 10% FBS and 1% antibiotic solution (containing 100 U/mL penicillin and 100 μg/mL streptomycin). The cells were maintained in an incubator at a temperature of 37 °C with 5% CO2. The spikes were performed after the cells reached complete confluence, characterized by the formation of a monolayer of cells around 48 h to 72 h after packaging.
In this study, we utilized the RAW 264.7 macrophages line (obtained from ATCC: code TIB-71™),human embryonic kidney cell line HEK-293 (obtained from ATCC: code CRL-1573™)and two human cancer cell cultures: the colon carcinoma cell line CaCo-2 and the adenocarcinomic human alveolar basal epithelial cell A549 (also obtained from ATCC: codesHTB-37™ and CCL-185™).These cell lines were cultured in Dulbecco’s modified Eagle medium (DMEM) from Gibco by Life Technologies (LifeTech Austria, Vienna, Austria). The growth medium was supplemented with 5% fetal bovine serum (FBS) from Gibco by Life Technologies and 1% penicillin-streptomycin obtained from Sigma-Aldrich (Vienna, Austria). The cells were maintained at 37 °C with 5% CO2 in a humidified incubator, and regular checks for mycoplasma contamination were carried out.
For experimental purposes, the cells were seeded into 96-well plates at a density of 2 × 10^4 cells/mL, with each well containing 100 µL of the cell suspension. The cells were allowed to adhere for 24 h. Subsequently, they were exposed to 100 µL of the test compounds, which were diluted in DMEM, with concentrations ranging from 2 to 600 µmol/L. The stock solutions of these compounds were prepared in water with 10% (v/v) dimethyl sulfoxide (DMSO) and stored at 4 °C.
To assess cell viability after 72 h of exposure to the compounds, we employed a 3-(4,5-dimethylthiazol-2-yl)-2,5-diphenyltetrazolium bromide (MTT)-based vitality assay kit (EZ4U, Biomedica, Vienna, Austria). Briefly, we added 20 µL of the EZ4U assay solution to each well and incubated the plates in the dark for 2 h. Subsequently, we measured the absorbance using a microplate reader at 450 nm, with 620 nm as a reference to reduce unspecific background values. For reliability, all experiments were conducted three times with triplicate samples.
The different mean concentrations for promastigotes (IC50) and macrophages (CC50) were calculated using nonlinear regression. For comparisons between groups, ANOVA analysis of variance was performed followed by Tukey’s test in a statistical program, taking the p-value < 0.05 as the maximum level of statistical significance.

[2] = tested on: L. (L.) amazonensis promastigotes; set-up: method as in PMID 30913526; conditions: read-out: IC50 antipromastigote activity; cited from earlier work
[3] = tested on: reactive oxygen species (ROS); experiment: ROS production (H2DCFDA) in infected RAW 264.7 macrophages; type: cell-based, murine; conditions: RAW 264.7 macrophages infected with L. (V.) braziliensis
Procedure: To quantify the levels of ROS generated by L. (V.) braziliensis-infected RAW 264.7 macrophages, the following procedure was employed: RAW 264.7 macrophages (1 × 10^5 cells per well) were added to a 96-well plate, with each well containing 100 μL of supplemented DMEM medium. These cells were allowed to incubate for 3 h at 37 °C with 5% CO2 to promote cell adhesion. Subsequently, the macrophages were infected with L. (V.) braziliensis at a ratio of 10:1 (promastigotes to macrophages) and incubated for 4 h. After the infection period, the cells were plated and incubated with various concentrations of test substances, ranging from 3.12 to 25 μmol/L. This incubation was carried out at 37 °C with 5% CO2 for duration of 72 h. Following the incubation period, 10 µL of H2DCFDA dye was added to each well, resulting in a final concentration of 20 µmol/L. The cells were then incubated at 37 °C in the dark for 30 min. The fluorescent intensity was measured using a fluorescence plate reader (FLx800) at an excitation wavelength of 485 nm and an emission wavelength of 528 nm. The fold change in ROS levels was calculated by comparing the results to a normal control.

Compound | spasmolytic effect / contraction force in the terminal ileum (terminal ileum) | CC50 at 72 h [1] [µM] | IC50 [2] [µM] | ROS level [3]
O=C(/N=C(/NCc1ccccc1)Nc1ccc([N+](=O)[O-])cc1)c1ccccc1 [LQOF-G1, (Z)-N-benzoyl-N-benzyl-N-(4-nitrophenyl)guanidine] | decrease in contraction force | 147 ± 2 | 11.5 | increased
O=C(/N=C(/NCc1ccccc1)Nc1ccc(Br)cc1)c1ccccc1 [LQOF-G2, (Z)-N-benzoyl-N-benzyl-N-(4-bromophenyl)guanidine] | decrease in contraction force | 164 ± 2.9 | 19.6 | increased
CC(C)(C)c1ccc(N/C(=N\C(=O)c2ccccc2)NCc2ccccc2)cc1 [LQOF-G6, (Z)-N-benzoyl-N-benzyl-N-(4-tert-butylphenyl)guanidine] |  | 154 ± 2.3 | 25.9 | increased
O=C(/N=C(/NCc1ccccc1)Nc1ccc(I)cc1)c1ccccc1 [LQOF-G7, (Z)-N-benzoyl-N-benzyl-N-(4-iodophenyl)guanidine] | decrease in contraction force | 183 ± 3.1 | 15.9 | 
O=C(/N=C(/NCc1ccc(Cl)cc1Cl)Nc1ccc(Br)cc1)c1ccccc1 [LQOF-G32, (Z)-N-benzoyl-N-(2,4-di-chlorobenzyl)-N-(4-bromophenyl)guanidine] | decrease in contraction force | 275.9 ± 2.4 |  | 

— publication PMC10813298, “Evidence of Guanidines Potential against Leishmania (Viannia) braziliensis: Exploring In Vitro Effectiveness, Toxicities and of Innate Immunity Response Effects” (Biomolecules, 2023)
